Test [1] deals with colon mucosa of wild type mice. Put plainly: HCO3^− secretion in colon mucosa of wild type (CaSR^+/+) mice. On the set-up: species or system mouse. Here is the method: FIGS. 13A-13F. […] Colonic mucosa from wild type (CaSR^+/+) (A-C) and knockout (CaSR^-/-) mice (D-F) were isolated and treated, and activities of the three HCO3^- transporters assayed as in rats. Data are means±SEM of 4-6 experiments. *p<0.05 vs. control (1st bar). Experiments were performed using non-fasting male Sprague-Dawley rats and C57BL/6 mice. Rats weighting 100-400 g were obtained from Charles River Laboratories. Mice lacking CaSR expression in intestinal epithelial cells (CaSR^-/-) and their CaSR^+/+ littermates were bred and maintained. CaSR^-/- mice were generated as previously described. Briefly, CaSR flox/flox mice were bred with transgenic mice expressing Cre Recombinase under the control of the villin 1 promoter and genotyped prior to all experiments after an approximate 10-12 generations. Mice were used at 5-10 weeks of age. Animals were fed and maintained on regular chow (Harlan) with free access to water before sacrifice. Animals were sacrificed with standard CO2 inhalation followed by cervical dislocation. The colons were isolated, cut open along the mesenteric border into a flat sheet, and flushed with ice-cold Ringer solutions. Mucosa from the distal colon were carefully hand-stripped off of serosal, muscular and submucosal layers as described and a pair of adjacent mucosal segments were incised and mounted into Ussing chambers. In some experiments, stripped mucosa was incised longitudinally into two equal pieces in order to facilitate comparisons between control and treatment. […] To verify that the effects of […] occurred via the CaSR, additional studies on the effect of […] were performed in intestinal epithelium-specific CaSR knockout mice (FIG. 13). Intestinal epithelium-specific CaSR knockout mice were used together with their wild type littermates.

Test [2] has as its system colon mucosa of CaSR null mice. The test can be described thus: HCO3^− secretion in colon mucosa of CaSR null (CaSR^−/−) mice. Also noted: species or system mouse. Here is the method:
FIGS. 13A-13F. […] Colonic mucosa from wild type (CaSR^+/+) (A-C) and knockout (CaSR^-/-) mice (D-F) were isolated and treated, and activities of the three HCO3^- transporters assayed as in rats. Data are means±SEM of 4-6 experiments. *p<0.05 vs. control (1st bar). Experiments were performed using non-fasting male Sprague-Dawley rats and C57BL/6 mice. Rats weighting 100-400 g were obtained from Charles River Laboratories. Mice lacking CaSR expression in intestinal epithelial cells (CaSR^-/-) and their CaSR^+/+ littermates were bred and maintained. CaSR^-/- mice were generated as previously described. Briefly, CaSR flox/flox mice were bred with transgenic mice expressing Cre Recombinase under the control of the villin 1 promoter and genotyped prior to all experiments after an approximate 10-12 generations. Mice were used at 5-10 weeks of age. Animals were fed and maintained on regular chow (Harlan) with free access to water before sacrifice. Animals were sacrificed with standard CO2 inhalation followed by cervical dislocation. The colons were isolated, cut open along the mesenteric border into a flat sheet, and flushed with ice-cold Ringer solutions. Mucosa from the distal colon were carefully hand-stripped off of serosal, muscular and submucosal layers as described and a pair of adjacent mucosal segments were incised and mounted into Ussing chambers. […]

Test [3] relates to CFTR-mediated and non CFTR-mediated HCO3^− secretion. The test can be described thus: Isc and pH stat HCO3^− secretion with/without lumen Cl^−, CFTR inhibitors or DIDS (FIGS. 5, 6). An excerpt: FIG. 3. Experimental approach 1: The Ussing chamber pH-stat set up used to monitor and measure HCO3^- secretion by colonic mucosa. FIG. 4. Experimental Approach 2: Measurement of HCO3^- secretion by colonic mucosa in the presence of apical NPPB/Glibenclamide. FIGS. 5A-5F. Activation of CaSR by […] inhibits CFTR-mediated HCO3^- secretion (JHCO3) and ISC but stimulates non CFTR-mediated HCO3^- secretion (JHCO3) and Isc. Physiological approach assayed with, versus without, lumen Cl^-. FIGS. 6A-6F. Activation of CaSR by […] inhibits CFTR-mediated HCO3^- secretion (JHCO3) and ISC but stimulates CFTR-independent HCO3^- secretion (JHCO3) and Isc. Pharmacological approach assayed with, and without, CFTR transporter inhibitors or AE inhibitor DIDS.

The test system of test [4] is HCO3^− secretion by colonic mucosa. The test can be described thus: Basal HCO3^− secretion (pH stat JHCO3 and Isc, Ussing chamber). Also noted: species or system rat. As to the method: Experiments were performed using non-fasting male Sprague-Dawley rats and C57BL/6 mice. Rats weighting 100-400 g were obtained from Charles River Laboratories. Mice lacking CaSR expression in intestinal epithelial cells (CaSR^−/−) and their CaSR^+/+ littermates were bred and maintained. CaSR^−/− mice were generated as previously described. Briefly, CaSR flox/flox mice were bred with transgenic mice expressing Cre Recombinase under the control of the villin 1 promoter and genotyped prior to all experiments after an approximate 10-12 generations. Mice were used at 5-10 weeks of age. Animals were fed and maintained on regular chow (Harlan) with free access to water before sacrifice. Animals were sacrificed with standard CO2 inhalation followed by cervical dislocation. The colons were isolated, cut open along the mesenteric border into a flat sheet, and flushed with ice-cold Ringer solutions. […]
Two types of approaches were used in the measurement of colonic HCO3^− secretion, namely, measurement of lumen pH or pH stat titration of net alkalinization by colonic mucosa. […] The amount of the acid delivered per unit time per surface area was used to quantitate HCO3^− secretion by the mucosa. Measurements were recorded continuously and mean values for consecutive 5 or 10 min periods were averaged. The rate of HCO3^− secretion (JHCO3) is expressed as μEq/hr/cm^2. The short-circuit current (Isc) was measured in microamperes (μA) and converted into μEq/hr/cm^2. Tissue resistance (R, Ω cm^2) was calculated from Ohm's law.
Two adjacent sheets of mucosa from each colon were mounted into two Ussing chambers and bathed luminally with HCO3^−-free Cl^− Ringer solution and serosally with HCO3^−-containing Cl^− Ringer solution. After 15 to 30 min, when Isc and JHCO3 had stabilized, the CaSR agonist, R568 was added to the serosal or mucosal side of tissue, and changes in Isc and JHCO3 during the 15-30 min period ensuing after the addition of the agonist were determined.

For the compound `COc1cccc([C@@H](C)NCCCc2ccccc2Cl)c1.Cl` [R568, 2-Chloro-N-[(1R)-1-(3-methoxyphenyl)ethyl]-benzenepropanamine hydrochloride], in test [1], the “Cl^−-dependent HCO3^− secretion” value is on record as “stimulated”, the “SCFA-dependent HCO3^− secretion” value is listed as “stimulated” and the “cAMP-dependent HCO3^− secretion” value is listed as “inhibited”. Besides, in test [2], the “R568 effects on Cl^−-, SCFA- and cAMP-dependent HCO3^− secretion” value is reported as “abolished”. In addition, in test [3] (absence of lumen Cl^−), the “HCO3^− secretion (pH stat)” value is listed as “net inhibition”, the “phase I Isc stimulation induced by R568” value is on record as “abolished” and the “phase II Isc inhibition” value was “remained unchanged or slightly reduced”. Besides, in test [3] (presence of lumen Cl^−), the “HCO3^− secretion (pH stat)” value is reported as “net stimulation” and the Isc response entry is “two-phase response”. For the same compound, the “basal JHCO3 response” value in test [4] (10 μM, added to serosa) is reported as “significantly stimulated”. Also, in test [4] (basal, absence 1.36±0.40, n=5, p>0.05), the “Isc in presence of R568” value worked out at 1.48±0.44 μEq/hr/cm^2. Besides, the “effects of R568 compared with reduced Ca^2+o” value in test [4] (under normal Ca^2+o condition) is given as “qualitatively similar, albeit with a slightly less pronounced effect”.

For the origin of these results see patent US20180153826A1, “MATERIALS AND METHODS FOR THE TREATMENT OF CYSTIC FIBROSIS” (UNIVERSITY OF FLORIDA RESEARCH FOUNDATION, INC., priority 2015, published 2018).
